Laboratory results as given in patent publication US10123993B2, “Cyclic ureas as inhibitors of rock” (BRISTOL-MYERS SQUIBB COMPANY, priority 2015, dated 2018).

These compounds were tested against ROCK2 (Homo sapiens, UniProt O75116) (assay: ROCK2 kinase inhibition assay (Caliper LABCHIP, FITC peptide substrate)). Conditions: 5 μM ATP, 1.5 μM peptide substrate; value ranges.
Type: biochemical
Procedure, shortened: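 Rho kinase with 5 μM ATP and 1.5 μM FITC-AHA-AKRRRLSSLRA-OH peptide in HEPES pH 7.5, 20 mM MgCl2, 0.015% Brij-35, 4 mM DTT, DMSO <2%. EDTA stop; phospho and non-phospho peptide separated on LabChip. IC50 from dose-response fit.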

Sequence of ROCK2 (O75116 whole entry, species assumed): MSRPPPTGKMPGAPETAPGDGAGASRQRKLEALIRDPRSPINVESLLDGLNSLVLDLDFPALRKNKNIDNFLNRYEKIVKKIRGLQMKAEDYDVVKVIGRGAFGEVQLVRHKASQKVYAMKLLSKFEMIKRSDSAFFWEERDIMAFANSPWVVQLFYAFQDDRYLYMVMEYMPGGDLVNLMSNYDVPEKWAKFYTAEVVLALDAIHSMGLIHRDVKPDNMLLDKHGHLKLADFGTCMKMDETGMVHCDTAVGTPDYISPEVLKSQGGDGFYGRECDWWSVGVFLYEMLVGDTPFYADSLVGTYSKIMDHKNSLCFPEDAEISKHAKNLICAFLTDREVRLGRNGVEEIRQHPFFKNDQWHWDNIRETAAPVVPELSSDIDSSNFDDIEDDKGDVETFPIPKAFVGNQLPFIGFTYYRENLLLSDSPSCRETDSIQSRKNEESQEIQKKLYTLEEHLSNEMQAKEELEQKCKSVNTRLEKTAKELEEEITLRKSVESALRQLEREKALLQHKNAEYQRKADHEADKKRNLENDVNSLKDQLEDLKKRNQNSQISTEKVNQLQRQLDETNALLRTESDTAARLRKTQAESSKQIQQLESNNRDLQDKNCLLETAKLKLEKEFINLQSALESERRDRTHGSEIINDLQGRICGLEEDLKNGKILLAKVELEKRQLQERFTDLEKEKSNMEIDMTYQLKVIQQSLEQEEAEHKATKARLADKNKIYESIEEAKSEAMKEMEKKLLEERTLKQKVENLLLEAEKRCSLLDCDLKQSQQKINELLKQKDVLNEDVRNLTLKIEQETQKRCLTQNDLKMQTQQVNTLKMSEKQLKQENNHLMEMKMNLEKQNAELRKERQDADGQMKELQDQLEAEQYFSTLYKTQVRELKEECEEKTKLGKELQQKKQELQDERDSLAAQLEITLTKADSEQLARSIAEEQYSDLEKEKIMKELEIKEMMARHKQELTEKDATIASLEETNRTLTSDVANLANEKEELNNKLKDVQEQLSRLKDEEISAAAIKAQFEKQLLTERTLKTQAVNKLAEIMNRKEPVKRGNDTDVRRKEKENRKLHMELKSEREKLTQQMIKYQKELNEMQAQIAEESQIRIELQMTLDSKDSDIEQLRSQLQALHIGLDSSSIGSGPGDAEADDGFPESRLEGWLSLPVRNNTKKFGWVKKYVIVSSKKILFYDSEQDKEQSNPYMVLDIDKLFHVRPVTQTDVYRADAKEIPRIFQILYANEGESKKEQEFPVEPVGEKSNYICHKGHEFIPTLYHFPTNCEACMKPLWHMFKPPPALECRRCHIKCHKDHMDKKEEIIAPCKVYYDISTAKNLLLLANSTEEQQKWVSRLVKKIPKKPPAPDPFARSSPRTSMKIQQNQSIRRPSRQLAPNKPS

IC50 | SMILES
2.1 to 20 nM | COc1nc(N2CCN(Cc3cccc(Cl)c3)C2=O)ccc1-c1cn[nH]c1 [Example 256, 1-(3-chlorobenzyl)-3-(6-methoxy-5-(1H-pyrazol-4-yl)pyridin-2-yl)imidazolidin-2-one]
2.1 to 20 nM | COc1nc(N2CCN(Cc3cccc(C)c3)C2=O)ccc1-c1cn[nH]c1 [Example 257, 1-(6-methoxy-5-(1H-pyrazol-4-yl)pyridin-2-yl)-3-(3-methylbenzyl)imidazolidin-2-one]
2.1 to 20 nM | COc1cc(CN2CCN(c3ccc(-c4cn[nH]c4)cc3)C2=O)ccc1F [Example 263, 1-(4-(1H-pyrazol-4-yl)phenyl)-3-(4-fluoro-3-methoxybenzyl)imidazolidin-2-one]
20.1 to 200 nM | COc1c(F)cccc1CN1CCN(c2ccc(-c3cn[nH]c3)cc2)C1=O [Example 264, 1-(4-(1H-pyrazol-4-yl)phenyl)-3-(3-fluoro-2-methoxybenzyl)imidazolidin-2-one]
2.1 to 20 nM | CCc1cc(N2CCN([C@H](C)c3cccc(OC)c3)C2=O)ccc1-c1cn[nH]c1 [Example 272, (R)-1-(3-ethyl-4-(1H-pyrazol-4-yl)phenyl)-3-(1-(3-methoxyphenyl)ethyl)imidazolidin-2-one]
2.1 to 20 nM | COc1cccc(CN2CCN(c3ccc(-c4cn[nH]c4)c(C)c3)C2=O)c1 [Example 273, 1-(3-methoxybenzyl)-3-(3-methyl-4-(1H-pyrazol-4-yl)phenyl)imidazolidin-2-one]
< 2 nM | COc1cc(F)cc(CN2CCN(c3ccc(-c4cn[nH]c4)c(C)c3)C2=O)c1 [Example 274, 1-(3-fluoro-5-methoxybenzyl)-3-(3-methyl-4-(1H-pyrazol-4-yl)phenyl)imidazolidin-2-one]
20.1 to 200 nM | COc1cccc(CN2CCN(c3ccc(-c4cn[nH]c4)c(C(F)(F)F)c3)C2=O)c1 [Example 275, 1-(4-(1H-pyrazol-4-yl)-3-(trifluoromethyl)phenyl)-3-(3-methoxybenzyl)imidazolidin-2-one]
20.1 to 200 nM | COc1cc(F)cc(CN2CCN(c3ccc(-c4cn[nH]c4)c(C(F)(F)F)c3)C2=O)c1 [Example 276, 1-(4-(1H-pyrazol-4-yl)-3-(trifluoromethyl)phenyl)-3-(3-fluoro-5-methoxybenzyl)imidazolidin-2-one]
200 to 2000 nM | COc1cccc(CN2CCN(c3ccc(-c4cn[nH]c4)c(C#N)c3)C2=O)c1 [Example 277, 5-(3-(3-methoxybenzyl)-2-oxoimidazolidin-1-yl)-2-(1H-pyrazol-4-yl)benzonitrile]
20.1 to 200 nM | COc1cc(F)cc(CN2CCN(c3ccc(-c4cn[nH]c4)c(C#N)c3)C2=O)c1 [Example 278, 5-(3-(3-fluoro-5-methoxybenzyl)-2-oxoimidazolidin-1-yl)-2-(1H-pyrazol-4-yl)benzonitrile]
200 to 2000 nM | COc1cc(CN2CCN(c3ccc(-c4cn[nH]c4)c(C#N)c3)C2=O)ccc1F [Example 279, 5-(3-(4-fluoro-3-methoxybenzyl)-2-oxoimidazolidin-1-yl)-2-(1H-pyrazol-4-yl)benzonitrile]
2.1 to 20 nM | CCc1cc(N2CCN(Cc3cc(F)cc(OC)c3)C2=O)ccc1-c1cn[nH]c1 [Example 280, 1-(3-ethyl-4-(1H-pyrazol-4-yl)phenyl)-3-(3-fluoro-5-methoxybenzyl)imidazolidin-2-one]
2.1 to 20 nM | CCc1cc(N2CCN(Cc3ccc(F)c(OC)c3)C2=O)ccc1-c1cn[nH]c1 [Example 281, 1-(3-ethyl-4-(1H-pyrazol-4-yl)phenyl)-3-(4-fluoro-3-methoxybenzyl)imidazolidin-2-one]

Continued, compound first:

SMILES | IC50
COc1nc(N2CCN(Cc3cc(F)cc(OCC4CC4)c3)C2=O)ccc1-c1cn[nH]c1 [Example 224, 1-(3-(cyclopropylmethoxy)-5-fluorobenzyl)-3-(6-methoxy-5-(1H-pyrazol-4-yl)pyridin-2-yl)imidazolidin-2-one] | 2.1 to 20 nM
COc1nc(N2CCN(Cc3cccc(F)c3OC)C2=O)ccc1-c1cn[nH]c1 [Example 225, 1-(3-fluoro-2-methoxybenzyl)-3-(6-methoxy-5-(1H-pyrazol-4-yl)pyridin-2-yl)imidazolidin-2-one] | 2.1 to 20 nM
COc1nc(N2CCN(Cc3cccc(F)c3)C2=O)ccc1-c1cn[nH]c1 [Example 226, 1-(3-fluorobenzyl)-3-(6-methoxy-5-(1H-pyrazol-4-yl)pyridin-2-yl)imidazolidin-2-one] | < 2 nM
COc1nc(N2CCN(CC3CCCCC3)C2=O)ccc1-c1cn[nH]c1 [Example 227, 1-(cyclohexylmethyl)-3-(6-methoxy-5-(1H-pyrazol-4-yl)pyridin-2-yl)imidazolidin-2-one] | 2.1 to 20 nM
COc1nc(N2CCN(Cc3cccc(OC(F)F)c3)C2=O)ccc1-c1cn[nH]c1 [Example 233, 1-(3-(difluoromethoxy)benzyl)-3-(6-methoxy-5-(1H-pyrazol-4-yl)pyridin-2-yl)imidazolidin-2-one] | 2.1 to 20 nM
Cc1cccc(CN2CCN(c3ccc(-c4cn[nH]c4)cn3)C2=O)c1 [Example 234, 1-(5-(1H-pyrazol-4-yl)pyridin-2-yl)-3-(3-methylbenzyl)imidazolidin-2-one] | 20.1 to 200 nM
N#Cc1cccc(CN2CCN(c3ccc(-c4cn[nH]c4)cn3)C2=O)c1 [Example 235, 3-((3-(5-(1H-pyrazol-4-yl)pyridin-2-yl)-2-oxoimidazolidin-1-yl)methyl)benzonitrile] | 200 to 2000 nM
O=C1N(Cc2cccc(Cl)c2)CCN1c1ccc(-c2cn[nH]c2)cn1 [Example 237, 1-(5-(1H-pyrazol-4-yl)pyridin-2-yl)-3-(3-chlorobenzyl)imidazolidin-2-one] | 20.1 to 200 nM
O=C1N(Cc2ccc(F)c(F)c2)CCN1c1ccc(-c2cn[nH]c2)cn1 [Example 238, 1-(5-(1H-pyrazol-4-yl)pyridin-2-yl)-3-(3,4-difluorobenzyl)imidazolidin-2-one] | 200 to 2000 nM
O=C(O)c1cccc(CN2CCN(c3ccc(-c4cn[nH]c4)cn3)C2=O)c1 [Example 239, 3-((3-(5-(1H-pyrazol-4-yl)pyridin-2-yl)-2-oxoimidazolidin-1-yl)methyl)benzoic acid] | 20.1 to 200 nM
O=C1N(Cc2cccc(C(F)(F)F)c2)CCN1c1ccc(-c2cn[nH]c2)cn1 [Example 240, 1-(5-(1H-pyrazol-4-yl)pyridin-2-yl)-3-(3-(trifluoromethyl)benzyl)imidazolidin-2-one] | 200 to 2000 nM
O=C1N(Cc2ccc(Cl)c(Cl)c2)CCN1c1ccc(-c2cn[nH]c2)cn1 [Example 241, 1-(5-(1H-pyrazol-4-yl)pyridin-2-yl)-3-(3,4-dichlorobenzyl)imidazolidin-2-one] | 200 to 2000 nM
O=C1N(Cc2cccnc2)CCN1c1ccc(-c2cn[nH]c2)cn1 [Example 242, 1-(5-(1H-pyrazol-4-yl)pyridin-2-yl)-3-(pyridin-3-ylmethyl)imidazolidin-2-one] | 200 to 2000 nM
O=C1N(Cc2ccccn2)CCN1c1ccc(-c2cn[nH]c2)cn1 [Example 243, 1-(5-(1H-pyrazol-4-yl)pyridin-2-yl)-3-(pyridin-2-ylmethyl)imidazolidin-2-one] | 200 to 2000 nM
COc1nc(N2CCN(Cc3ccccc3F)C2=O)ccc1-c1cn[nH]c1 [Example 244, 1-(2-fluorobenzyl)-3-(6-methoxy-5-(1H-pyrazol-4-yl)pyridin-2-yl)imidazolidin-2-one] | 2.1 to 20 nM
COc1nc(N2CCN(Cc3ccc(F)cc3F)C2=O)ccc1-c1cn[nH]c1 [Example 245, 1-(2,4-difluorobenzyl)-3-(6-methoxy-5-(1H-pyrazol-4-yl)pyridin-2-yl)imidazolidin-2-one] | 20.1 to 200 nM
COc1nc(N2CCN(Cc3cc(F)ccc3F)C2=O)ccc1-c1cn[nH]c1 [Example 246, 1-(2,5-difluorobenzyl)-3-(6-methoxy-5-(1H-pyrazol-4-yl)pyridin-2-yl)imidazolidin-2-one] | 2.1 to 20 nM
COc1nc(N2CCN(Cc3cc(F)cc(F)c3)C2=O)ccc1-c1cn[nH]c1 [Example 247, 1-(3,5-difluorobenzyl)-3-(6-methoxy-5-(1H-pyrazol-4-yl)pyridin-2-yl)imidazolidin-2-one] | < 2 nM
COc1nc(N2CCN(Cc3cccc(F)c3C)C2=O)ccc1-c1cn[nH]c1 [Example 248, 1-(3-fluoro-2-methylbenzyl)-3-(6-methoxy-5-(1H-pyrazol-4-yl)pyridin-2-yl)imidazolidin-2-one] | < 2 nM
COc1nc(N2CCN(Cc3ccc(F)cc3C)C2=O)ccc1-c1cn[nH]c1 [Example 249, 1-(4-fluoro-2-methylbenzyl)-3-(6-methoxy-5-(1H-pyrazol-4-yl)pyridin-2-yl)imidazolidin-2-one] | 20.1 to 200 nM
COc1nc(N2CCN(Cc3cc(F)ccc3C)C2=O)ccc1-c1cn[nH]c1 [Example 250, 1-(5-fluoro-2-methylbenzyl)-3-(6-methoxy-5-(1H-pyrazol-4-yl)pyridin-2-yl)imidazolidin-2-one] | 2.1 to 20 nM
COc1cc(F)ccc1CN1CCN(c2ccc(-c3cn[nH]c3)c(OC)n2)C1=O [Example 251, 1-(4-fluoro-2-methoxybenzyl)-3-(6-methoxy-5-(1H-pyrazol-4-yl)pyridin-2-yl)imidazolidin-2-one] | 20.1 to 200 nM
COc1cccc(CN2CCN(c3ccc(-c4cn[nH]c4)c(OC)n3)C2=O)c1F [Example 252, 1-(2-fluoro-3-methoxybenzyl)-3-(6-methoxy-5-(1H-pyrazol-4-yl)pyridin-2-yl)imidazolidin-2-one] | 2.1 to 20 nM
COc1nc(N2CCN(Cc3cccnc3)C2=O)ccc1-c1cn[nH]c1 [Example 253] | 2.1 to 20 nM
COc1nc(N2CCN(CC3CCCO3)C2=O)ccc1-c1cn[nH]c1 (stereo not shown) [Example 254, 1-(6-methoxy-5-(1H-pyrazol-4-yl)pyridin-2-yl)-3-((tetrahydrofuran-2-yl)methyl)imidazolidin-2-one] | 20.1 to 200 nM
COc1nc(N2CCN(Cc3noc(C)n3)C2=O)ccc1-c1cn[nH]c1 [Example 255, 1-((6-methoxy-5-(1H-pyrazol-4-yl)pyridin-2-yl)-3-(5-methyl-1,2,4-oxadiazol-3-yl)methyl)imidazolidin-2-one] | 200 to 2000 nM
